# In patent US20250144094A1 (Erasca, Inc., priority 2021, published 2025):
# Target: Recombinant human ULK1 (1-649) (Homo sapiens (Human), UniProt O75385)
# Test: ULK1 ADP Glo kinase activity assay, new method (ULKtide peptide substrate)
# Details: 25° C., 40 minutes, read-out: ULK1 biochemical IC50
# Summary of the method: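 GST-tagged human ULK1 (1-649) from Sf9 cells was reacted with ULKtide peptide and ATP for 40 min at 25 °C across 12-point compound dilutions from 10 μM. ADP formed was quantified by ADP-Glo luminescence; IC50 came from four-parameter fits relative to DMSO controls.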
# Sequence of Recombinant human ULK1 (1-649) (O75385 1-649): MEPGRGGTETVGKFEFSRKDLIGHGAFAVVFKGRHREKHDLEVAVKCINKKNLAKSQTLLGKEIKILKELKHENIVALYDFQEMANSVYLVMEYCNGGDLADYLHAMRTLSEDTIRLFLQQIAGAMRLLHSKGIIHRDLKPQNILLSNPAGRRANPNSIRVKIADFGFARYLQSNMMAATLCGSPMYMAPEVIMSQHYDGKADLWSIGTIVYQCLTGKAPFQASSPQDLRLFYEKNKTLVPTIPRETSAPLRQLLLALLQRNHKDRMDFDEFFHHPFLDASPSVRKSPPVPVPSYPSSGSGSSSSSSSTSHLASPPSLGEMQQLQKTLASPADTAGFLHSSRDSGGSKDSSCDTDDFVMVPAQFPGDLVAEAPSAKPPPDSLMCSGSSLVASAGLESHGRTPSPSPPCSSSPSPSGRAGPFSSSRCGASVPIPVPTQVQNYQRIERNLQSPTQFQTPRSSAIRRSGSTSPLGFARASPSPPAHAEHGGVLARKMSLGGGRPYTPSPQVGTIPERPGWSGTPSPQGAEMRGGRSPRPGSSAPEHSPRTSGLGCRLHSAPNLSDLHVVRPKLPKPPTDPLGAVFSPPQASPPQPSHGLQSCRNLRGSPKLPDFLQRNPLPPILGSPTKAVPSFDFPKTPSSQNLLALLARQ
row,IC50,Compound
1,≤ 5 nM,"CCc1cc2c(cc1Nc1ncc(C(F)(F)F)c(-c3cc4c(s3)C(=O)N(C3COC3)CCS4(=O)=O)n1)CCN(CC1CC1)C2 [Example 274, 7-(2-((2-(cyclopropylmethyl)-7-ethyl-1,2,3,4-tetrahydroisoquinolin-6-yl)amino)-5-(trifluoromethyl)pyrimidin-4-yl)-4-(oxetan-3-yl)-3,4-dihydrothieno[2,3-f][1,4]thiazepin-5(2H)-one 1,1-dioxide]"
2,≤ 5 nM,"O=C1c2sc(-c3nc(Nc4cc5c(cc4C4CC4)CNCC5)ncc3C(F)(F)F)cc2S(=O)(=O)CCN1C1COC1 [Example 219, 7-(2-((7-cyclopropyl-1,2,3,4-tetrahydroisoquinolin-6-yl)amino)-5-(trifluoromethyl)pyrimidin-4-yl)-4-(oxetan-3-yl)-3,4-dihydrothieno[2,3-f][1,4]thiazepin-5(2H)-one 1,1-dioxide]"
3,≤ 5 nM,"CCN1Cc2cc(C)c(Nc3ncc(C(F)(F)F)c(-c4cc5c(s4)C(=O)N(C)CCS5(=O)=O)n3)cc2C1 [Example 192, 7-(2-((2-ethyl-6-methylisoindolin-5-yl)amino)-5-(trifluoromethyl)pyrimidin-4-yl)-4-methyl-3,4-dihydrothieno[2,3-f][1,4]thiazepin-5(2H)-one 1,1-dioxide]"
4,≤ 5 nM,"CCc1cc(N2CCN(CC(N)=O)CC2)ccc1Nc1ncc(C(F)(F)F)c(-c2cc3c(s2)C(=O)N(C2CC2)CCS3(=O)=O)n1 [Example 280, 2-(4-(4-((4-(4-cyclopropyl-1,1-dioxido-5-oxo-2,3,4,5-tetrahydrothieno[2,3-f][1,4]thiazepin-7-yl)-5-(trifluoromethyl)pyrimidin-2-yl)amino)-3-ethylphenyl)piperazin-1-yl)acetamide]"
5,≤ 5 nM,"CN1CCS(=O)(=O)c2cc(-c3nc(Nc4cc5c(cc4Cl)CN(CCF)CC5)ncc3C(F)(F)F)sc2C1=O [Example 237, 7-(2-((7-chloro-2-(2-fluoroethyl)-1,2,3,4-tetrahydroisoquinolin-6-yl)amino)-5-(trifluoromethyl)pyrimidin-4-yl)-4-methyl-3,4-dihydrothieno[2,3-f][1,4]thiazepin-5(2H)-one 1,1-dioxide]"
6,≤ 5 nM,"CCN1CCc2cc(Nc3ncc(C(F)(F)F)c(-c4cc5c(s4)C(=O)N(C)CCS5(=O)=O)n3)c(SC)cc2C1 [Example 188, 7-(2-((2-ethyl-7-(methylthio)-1,2,3,4-tetrahydroisoquinolin-6-yl)amino)-5-(trifluoromethyl)pyrimidin-4-yl)-4-methyl-3,4-dihydrothieno[2,3-f][1,4]thiazepin-5(2H)-one 1,1-dioxide]"
7,≤ 5 nM,"CN1C[C@@H]2C[C@H]1CN2c1ccc(Nc2ncc(C(F)(F)F)c(-c3cc4c(s3)C(=O)N(C3CC3)CCS4(=O)=O)n2)c(C2CC2)c1 [Example 306, 4-Cyclopropyl-7-(2-((2-cyclopropyl-4-((1S,4S)-5-methyl-2,5-diazabicyclo[2.2.1]heptan-2-yl)phenyl)amino)-5-(trifluoromethyl)pyrimidin-4-yl)-3,4-dihydrothieno[2,3-f][1,4]thiazepin-5(2H)-one 1,1-dioxide]"
8,10 to 50 nM,"O=C1c2sc(-c3nc(Nc4cc5c(cc4C4CC4)CN(CCOC(F)(F)F)CC5)ncc3C(F)(F)F)cc2S(=O)(=O)CCN1C1CC1 [Example 314, 4-cyclopropyl-7-(2-((7-cyclopropyl-2-(2-(trifluoromethoxy)ethyl)-1,2,3,4-tetrahydroisoquinolin-6-yl)amino)-5-(trifluoromethyl)pyrimidin-4-yl)-3,4-dihydrothieno[2,3-f][1,4]thiazepin-5(2H)-one 1,1-dioxide]"
9,≤ 5 nM,"CCN1CCc2cc(Nc3ncc(C(F)(F)F)c(-c4cc5c(s4)C(=O)N(C4CC4)CCS5(=O)=O)n3)c(C3CC3)cc2C1 [Example 233, 4-cyclopropyl-7-(2-((7-cyclopropyl-2-ethyl-1,2,3,4-tetrahydroisoquinolin-6-yl)amino)-5-(trifluoromethyl)pyrimidin-4-yl)-3,4-dihydrothieno[2,3-f][1,4]thiazepin-5(2H)-one 1,1-dioxide]"
10,≤ 5 nM,"CNC(=O)[C@@H]1CN(c2ccc(Nc3ncc(C(F)(F)F)c(-c4cc5c(s4)C(=O)N(C4COC4)CCS5(=O)=O)n3)c(C3CC3)c2)CCN1 [Example 373, (S)-4-(3-cyclopropyl-4-((4-(4-(oxetan-3-yl)-1,1-dioxido-5-oxo-2,3,4,5-tetrahydrothieno[2,3-f][1,4]thiazepin-7-yl)-5-(trifluoromethyl)pyrimidin-2-yl)amino)phenyl)-N-methylpiperazine-2-carboxamide]"
11,≤ 5 nM,"NC(=O)CN1CCc2cc(Nc3ncc(C(F)(F)F)c(-c4cc5c(s4)C(=O)N(C4COC4)CCS5(=O)=O)n3)c(C3CC3)cc2C1 [Example 284, 2-(7-cyclopropyl-6-((4-(4-(oxetan-3-yl)-1,1-dioxido-5-oxo-2,3,4,5-tetrahydrothieno[2,3-f][1,4]thiazepin-7-yl)-5-(trifluoromethyl)pyrimidin-2-yl)amino)-3,4-dihydroisoquinolin-2(1H)-yl)acetamide]"
12,≤ 5 nM,"O=C1c2sc(-c3nc(Nc4cc5c(cc4C4CC4)CCNC5)ncc3C(F)(F)F)cc2S(=O)(=O)CCN1CC(F)(F)F [Example 232, 7-(2-((6-cyclopropyl-1,2,3,4-tetrahydroisoquinolin-7-yl)amino)-5-(trifluoromethyl)pyrimidin-4-yl)-4-(2,2,2-trifluoroethyl)-3,4-dihydrothieno[2,3-f][1,4]thiazepin-5(2H)-one 1,1-dioxide]"
13,≤ 5 nM,"CCc1cc2c(cc1Nc1ncc(C(F)(F)F)c(-c3cc4c(s3)C(=O)N(C3COC3)CCS4(=O)=O)n1)CCN(CC1COC1)C2 [Example 275, 7-(2-((7-ethyl-2-(oxetan-3-ylmethyl)-1,2,3,4-tetrahydroisoquinolin-6-yl)amino)-5-(trifluoromethyl)pyrimidin-4-yl)-4-(oxetan-3-yl)-3,4-dihydrothieno[2,3-f][1,4]thiazepin-5(2H)-one 1,1-dioxide]"
14,≤ 5 nM,"O=C1c2sc(-c3nc(Nc4cc5c(cc4Cl)CNCC5)ncc3C(F)(F)F)cc2S(=O)(=O)CCN1C1CCC1 [Example 158, 7-(2-((7-chloro-1,2,3,4-tetrahydroisoquinolin-6-yl)amino)-5-(trifluoromethyl)pyrimidin-4-yl)-4-cyclobutyl-3,4-dihydrothieno[2,3-f][1,4]thiazepin-5(2H)-one 1,1-dioxide]"
15,> 100 nM,"Cc1ccc(C2CN(C)C2)cc1Nc1ncc(C(F)(F)F)c(-c2cc(S(C)(=O)=O)cs2)n1 [Example 137, N-(2-Methyl-5-(1-methylazetidin-3-yl)phenyl)-4-(4-(methylsulfonyl)thiophen-2-yl)-5-(trifluoromethyl)pyrimidin-2-amine]"
16,≤ 5 nM,"O=C1c2sc(-c3nc(Nc4ccc(N5CC6(CNC6)C5)cc4C4CC4)ncc3C(F)(F)F)cc2S(=O)(=O)CCN1C1COC1 [Example 377, 7-(2-((2-Cyclopropyl-4-(2,6-diazaspiro[3.3]heptan-2-yl)phenyl)amino)-5-(trifluoromethyl)pyrimidin-4-yl)-4-(oxetan-3-yl)-3,4-dihydrothieno[2,3-f][1,4]thiazepin-5(2H)-one 1,1-dioxide]"

row,Compound,IC50
1,"4-cyclopropyl-7-(2-((4-(1-(2,2-difluoroethyl)piperidin-4-yl)-2-ethylphenyl)amino)-5-(trifluoromethyl)pyrimidin-4-yl)-3,4-dihydrothieno[2,3-f][1,4]thiazepin-5(2H)-one 1,1-dioxide [Example 281]",5 to 10 nM
